The values that follow come from ChEMBL document CHEMBL3588844, “Discovery of A-893, A New Cell-Active Benzoxazinone Inhibitor of Lysine Methyltransferase SMYD2” (ACS Med Chem Lett, 2015).

The target in assay [1] is N-lysine methyltransferase SMYD2 (Homo sapiens, UniProt Q9NRG4).
Assay [2] addresses Histone-lysine N-methyltransferase SMYD3 (Homo sapiens) (UniProt Q9H7B4). Description: Inhibition of SMYD3 (unknown origin) assessed as incorporation of tritium labeled methyl group from [3H]-SAM to substrate at 1 uM after 1 hr by scintillation proximity assay relative to control.
For assay [3], the target named is DNA (cytosine-5)-methyltransferase 1 (Homo sapiens) (UniProt P26358). Nature of the assay: Inhibition of DNMT1 (unknown origin) assessed as incorporation of tritium labeled methyl group from [3H]-SAM to dsDNA substrate at 1 uM after 1 hr by scintillation proximity assay relative to control. In general terms: SPA uses beads or plates that emit light when radiolabelled molecules are held near them.

Assay [4] has as its target Histone-lysine N-methyltransferase, H3 lysine-79 specific (Homo sapiens) (UniProt Q8TEK3). Description: Inhibition of DOT1L (unknown origin) at 1 uM after 1 hr by filter-based assay.
Assay [5] relates to A549. Description: Effect on p53 protein level in human A549 cells at 10 uM after 18 hrs. The class given is functional, cell-based.
Assay [6] has as its target DNMT3B-DNMT3L complex (Homo sapiens) (UniProt Q9UBC3+Q9UJW3). Nature of the assay: Inhibition of DNMT3B/3L (unknown origin) at 1 uM after 1 hr by filter-based assay. The class given is protein-complex assay.
In assay [7] the target is Protein arginine N-methyltransferase 8 (Homo sapiens) (UniProt Q9NR22). Nature of the assay: Inhibition of PRMT8 (unknown origin) assessed as incorporation of tritium labeled methyl group from [3H]-SAM to substrate at 1 uM after 1 hr by scintillation proximity assay relative to control.
Assay [8] has as its target Histone-lysine N-methyltransferase SUV39H2 (Homo sapiens) (UniProt Q9H5I1). Description: Inhibition of SUV39H2 (unknown origin) assessed as incorporation of tritium labeled methyl group from [3H]-SAM to substrate at 10 to 50 uM after 1 hr by scintillation proximity assay relative to control.
Assay [9] deals with Protein arginine N-methyltransferase 3 (Homo sapiens) (UniProt O60678). Description: Inhibition of PRMT3 (unknown origin) assessed as incorporation of tritium labeled methyl group from [3H]-SAM to substrate at 1 uM after 1 hr by scintillation proximity assay relative to control.
The target of assay [10] is Histone-lysine N-methyltransferase, H3 lysine-36 specific (Homo sapiens) (UniProt Q96L73). Description: Inhibition of NSD1 (unknown origin) at 1 uM after 1 hr by filter-based assay.
Assay [11] has as its target Histone-lysine N-methyltransferase EHMT2 (Homo sapiens) (UniProt Q96KQ7). Description: Inhibition of G9a (unknown origin) assessed as incorporation of tritium labeled methyl group from [3H]-SAM to substrate at 1 uM after 1 hr by scintillation proximity assay relative to control.
Assay [12] deals with Histone-lysine N-methyltransferase KMT5B (Homo sapiens) (UniProt Q4FZB7). Description: Inhibition of SUV420H1 (unknown origin) assessed as incorporation of tritium labeled methyl group from [3H]-SAM to substrate at 1 uM after 1 hr by scintillation proximity assay relative to control.
Assay [13] concerns the target Protein arginine N-methyltransferase 7 (Homo sapiens) (UniProt Q9NVM4). Description: Inhibition of PRMT7 (unknown origin) assessed as incorporation of tritium labeled methyl group from [3H]-SAM to substrate at 10 to 50 uM after 1 hr by scintillation proximity assay relative to control.
Assay [14] has as its target RNA 5'-monophosphate methyltransferase (Homo sapiens) (UniProt Q7Z5W3). Description: Inhibition of BCDIN3D (unknown origin) assessed as incorporation of tritium labeled methyl group from [3H]-SAM to substrate at 1 uM after 1 hr by scintillation proximity assay relative to control.
Assay [15] has as its target DNMT3A2/3L complex (Homo sapiens) (UniProt Q9Y6K1+Q9UJW3). Description: Inhibition of DNMT3A/3L (unknown origin) at 1 uM after 1 hr by filter-based assay. It counts as protein-complex assay.
Assay [16] has as its target Protein arginine N-methyltransferase 6 (Homo sapiens) (UniProt Q96LA8). Nature of the assay: Inhibition of PRMT6 (unknown origin) assessed as incorporation of tritium labeled methyl group from [3H]-SAM to substrate at 1 uM after 1 hr by scintillation proximity assay relative to control.
Assay [17] has as its target Histone-lysine N-methyltransferase EZH2 (Homo sapiens) (UniProt Q15910). Description: Inhibition of EZH2 trimeric complex (unknown origin) assessed as incorporation of tritium labeled methyl group from [3H]-SAM to substrate at 1 uM after 1 hr by scintillation proximity assay relative to control.
Assay [18] concerns the target Protein N-lysine methyltransferase METTL21A (Homo sapiens) (UniProt Q8WXB1). Description: Inhibition of METTL21A (unknown origin) assessed as incorporation of tritium labeled methyl group from [3H]-SAM to substrate at 1 uM after 1 hr by scintillation proximity assay relative to control.
Assay [19] addresses Histone-lysine N-methyltransferase PRDM9 (Homo sapiens) (UniProt Q9NQV7). Description: Inhibition of PRDM9 (unknown origin) assessed as incorporation of tritium labeled methyl group from [3H]-SAM to substrate at 1 uM after 1 hr by scintillation proximity assay relative to control.
Assay [20] concerns the target Protein arginine N-methyltransferase 7 (Homo sapiens) (UniProt Q9NVM4). Description: Inhibition of PRMT7 (unknown origin) assessed as incorporation of tritium labeled methyl group from [3H]-SAM to substrate at 1 uM after 1 hr by scintillation proximity assay relative to control.
Assay [21] addresses Histone-lysine N-methyltransferase EZH1 (Homo sapiens) (UniProt Q92800). Nature of the assay: Inhibition of EZH1 pentameric complex (unknown origin) assessed as incorporation of tritium labeled methyl group from [3H]-SAM to substrate at 1 uM after 1 hr by scintillation proximity assay relative to control.
The target of assay [22] is Histone-lysine N-methyltransferase SETD2 (Homo sapiens) (UniProt Q9BYW2). Description: Inhibition of SETD2 (unknown origin) assessed as incorporation of tritium labeled methyl group from [3H]-SAM to substrate at 1 uM after 1 hr by scintillation proximity assay relative to control.
Assay [23] deals with Histone-lysine N-methyltransferase SETD7 (Homo sapiens) (UniProt Q8WTS6). Description: Inhibition of SETD7 (unknown origin) assessed as incorporation of tritium labeled methyl group from [3H]-SAM to substrate at 1 uM after 1 hr by scintillation proximity assay relative to control.
The target in assay [24] is N-lysine methyltransferase KMT5A (Homo sapiens) (UniProt Q9NQR1). Description: Inhibition of SETD8 (unknown origin) assessed as incorporation of tritium labeled methyl group from [3H]-SAM to substrate at 1 uM after 1 hr by scintillation proximity assay relative to control.
The target in assay [25] is Histone-lysine N-methyltransferase SUV39H2 (Homo sapiens) (UniProt Q9H5I1). Nature of the assay: Inhibition of SUV39H2 (unknown origin) assessed as incorporation of tritium labeled methyl group from [3H]-SAM to substrate at 1 uM after 1 hr by scintillation proximity assay relative to control.
In assay [26] the target is Protein arginine N-methyltransferase 3 (Homo sapiens) (UniProt O60678). Description: Inhibition of PRMT3 (unknown origin) assessed as incorporation of tritium labeled methyl group from [3H]-SAM to substrate at 10 to 50 uM after 1 hr by scintillation proximity assay relative to control.
Assay [27] concerns the target Histone-lysine N-methyltransferase ASH1L (Homo sapiens) (UniProt Q9NR48). Description: Inhibition of ASH1L (unknown origin) at 1 uM after 1 hr by filter-based assay.
Assay [28] deals with Histone-lysine N-methyltransferase KMT5C (Homo sapiens) (UniProt Q86Y97). Nature of the assay: Inhibition of SUV420H2 (unknown origin) at 1 uM after 1 hr by filter-based assay.
Assay [29] has as its target Histone-lysine N-methyltransferase SMYD3 (Homo sapiens) (UniProt Q9H7B4). Nature of the assay: Inhibition of SMYD3 (unknown origin) assessed as incorporation of tritium labeled methyl group from [3H]-SAM to substrate at 10 to 50 uM after 1 hr by scintillation proximity assay relative to control.
The target of assay [30] is Histone-lysine N-methyltransferase EHMT1 (Homo sapiens) (UniProt Q9H9B1). Description: Inhibition of EHMT1 (unknown origin) assessed as incorporation of tritium labeled methyl group from [3H]-SAM to substrate at 1 uM after 1 hr by scintillation proximity assay relative to control.
Assay [31] deals with Protein N-lysine methyltransferase METTL21D (Homo sapiens) (UniProt Q9H867). Nature of the assay: Inhibition of METTL21D (unknown origin) assessed as incorporation of tritium labeled methyl group from [3H]-SAM to substrate at 1 uM after 1 hr by scintillation proximity assay relative to control.
Assay [32] deals with Histone-lysine N-methyltransferase NSD3 (Homo sapiens) (UniProt Q9BZ95). Description: Inhibition of NSD3 (unknown origin) at 1 uM after 1 hr by filter-based assay.
In assay [33] the target is Histone-lysine N-methyltransferase 2A (Homo sapiens) (UniProt Q03164). Description: Inhibition of MLL1 trimeric complex (unknown origin) assessed as incorporation of tritium labeled methyl group from [3H]-SAM to substrate at 1 uM after 1 hr by scintillation proximity assay relative to control.
For assay [34], the target named is PRMT5/MEP50 complex (Homo sapiens) (UniProt O14744+Q9BQA1). Nature of the assay: Inhibition of PRMT5-MEP50 complex (unknown origin) assessed as incorporation of tritium labeled methyl group from [3H]-SAM to substrate at 1 uM after 1 hr by scintillation proximity assay relative to control. It counts as protein-complex assay.
Assay [35] has as its target Histone-lysine N-methyltransferase NSD2 (Homo sapiens) (UniProt O96028). Nature of the assay: Inhibition of NSD2 (unknown origin) at 1 uM after 1 hr by filter-based assay.
The target in assay [36] is Histone-lysine N-methyltransferase SETDB1 (Homo sapiens) (UniProt Q15047). Nature of the assay: Inhibition of SETDB1 (unknown origin) assessed as incorporation of tritium labeled methyl group from [3H]-SAM to substrate at 1 uM after 1 hr by scintillation proximity assay relative to control.
The target in assay [37] is Protein arginine N-methyltransferase 1 (Homo sapiens) (UniProt Q99873). Nature of the assay: Inhibition of PRMT1 (unknown origin) assessed as incorporation of tritium labeled methyl group from [3H]-SAM to substrate at 1 uM after 1 hr by scintillation proximity assay relative to control.
In assay [38] the test system is A549. Nature of the assay: Upregulation of p53 protein level in human A549 cells at 10 uM after 18 hrs relative to control. It counts as functional.

The structures appear in SMILES notation. pIC50: −log10 of the molar value. The source made the active and inactive calls. The rule behind the calls is not given here. A value given as a limit tells only on which side of the number the result lay.

N-lysine methyltransferase SMYD2, sequence (Q9NRG4 whole entry): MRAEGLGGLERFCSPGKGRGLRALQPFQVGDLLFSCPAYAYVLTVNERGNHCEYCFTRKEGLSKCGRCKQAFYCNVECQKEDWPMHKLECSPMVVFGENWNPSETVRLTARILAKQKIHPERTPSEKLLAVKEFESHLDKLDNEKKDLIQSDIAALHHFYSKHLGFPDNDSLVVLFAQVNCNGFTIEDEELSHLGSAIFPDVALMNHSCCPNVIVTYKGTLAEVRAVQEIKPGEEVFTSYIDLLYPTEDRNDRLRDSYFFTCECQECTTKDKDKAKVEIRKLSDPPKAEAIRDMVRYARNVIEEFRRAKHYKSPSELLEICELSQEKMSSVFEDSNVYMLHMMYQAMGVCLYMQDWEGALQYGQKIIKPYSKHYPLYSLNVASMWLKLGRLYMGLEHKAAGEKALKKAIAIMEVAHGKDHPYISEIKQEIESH
Histone-lysine N-methyltransferase SUV39H2 (Homo sapiens), sequence (Q9H5I1 whole entry): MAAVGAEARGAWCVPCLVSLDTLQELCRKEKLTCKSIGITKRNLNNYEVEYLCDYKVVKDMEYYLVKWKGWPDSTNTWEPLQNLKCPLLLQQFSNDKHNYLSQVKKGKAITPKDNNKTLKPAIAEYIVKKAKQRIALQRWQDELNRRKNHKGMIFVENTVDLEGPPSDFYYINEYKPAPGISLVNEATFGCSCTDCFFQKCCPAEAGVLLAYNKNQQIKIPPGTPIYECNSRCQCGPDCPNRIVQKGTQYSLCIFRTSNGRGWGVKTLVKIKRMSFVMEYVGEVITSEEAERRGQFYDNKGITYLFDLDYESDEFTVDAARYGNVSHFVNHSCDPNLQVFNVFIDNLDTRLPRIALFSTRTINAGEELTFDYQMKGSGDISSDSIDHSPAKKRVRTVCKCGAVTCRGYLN
Protein arginine N-methyltransferase 3 (Homo sapiens), sequence (O60678 2-531 limits assumed): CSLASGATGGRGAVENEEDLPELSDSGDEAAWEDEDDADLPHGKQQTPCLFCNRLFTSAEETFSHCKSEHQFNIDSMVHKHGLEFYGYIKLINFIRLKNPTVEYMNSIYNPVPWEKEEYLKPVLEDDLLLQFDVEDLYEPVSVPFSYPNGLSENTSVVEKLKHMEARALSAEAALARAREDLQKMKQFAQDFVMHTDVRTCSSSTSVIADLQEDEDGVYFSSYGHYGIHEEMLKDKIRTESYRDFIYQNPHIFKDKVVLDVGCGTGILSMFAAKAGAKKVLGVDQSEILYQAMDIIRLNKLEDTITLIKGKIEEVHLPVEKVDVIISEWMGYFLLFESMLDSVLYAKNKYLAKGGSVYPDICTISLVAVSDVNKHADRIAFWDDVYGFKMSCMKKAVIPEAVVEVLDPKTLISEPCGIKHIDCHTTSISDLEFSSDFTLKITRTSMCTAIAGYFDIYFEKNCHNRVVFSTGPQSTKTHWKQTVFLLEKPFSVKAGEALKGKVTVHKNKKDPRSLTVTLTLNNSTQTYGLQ
Protein arginine N-methyltransferase 7 (Homo sapiens), sequence (Q9NVM4 whole entry): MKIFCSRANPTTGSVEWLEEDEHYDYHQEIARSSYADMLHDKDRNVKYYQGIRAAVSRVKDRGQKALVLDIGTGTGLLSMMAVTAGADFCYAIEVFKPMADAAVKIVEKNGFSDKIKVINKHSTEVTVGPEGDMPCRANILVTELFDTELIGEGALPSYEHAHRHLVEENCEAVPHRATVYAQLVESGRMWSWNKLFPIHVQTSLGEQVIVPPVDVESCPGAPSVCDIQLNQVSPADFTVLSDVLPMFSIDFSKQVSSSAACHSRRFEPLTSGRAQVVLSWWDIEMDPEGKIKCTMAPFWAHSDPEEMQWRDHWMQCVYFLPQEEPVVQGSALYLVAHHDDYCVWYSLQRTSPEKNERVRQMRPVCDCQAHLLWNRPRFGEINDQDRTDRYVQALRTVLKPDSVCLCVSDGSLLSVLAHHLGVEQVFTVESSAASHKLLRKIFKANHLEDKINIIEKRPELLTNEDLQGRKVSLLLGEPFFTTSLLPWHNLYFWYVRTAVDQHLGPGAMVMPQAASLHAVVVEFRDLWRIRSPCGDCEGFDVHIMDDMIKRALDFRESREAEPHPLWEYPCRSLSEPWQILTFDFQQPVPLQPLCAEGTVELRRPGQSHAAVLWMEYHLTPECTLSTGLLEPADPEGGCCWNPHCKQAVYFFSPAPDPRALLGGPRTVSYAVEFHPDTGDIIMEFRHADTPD
Histone-lysine N-methyltransferase SMYD3 (Homo sapiens), sequence (Q9H7B4 whole entry): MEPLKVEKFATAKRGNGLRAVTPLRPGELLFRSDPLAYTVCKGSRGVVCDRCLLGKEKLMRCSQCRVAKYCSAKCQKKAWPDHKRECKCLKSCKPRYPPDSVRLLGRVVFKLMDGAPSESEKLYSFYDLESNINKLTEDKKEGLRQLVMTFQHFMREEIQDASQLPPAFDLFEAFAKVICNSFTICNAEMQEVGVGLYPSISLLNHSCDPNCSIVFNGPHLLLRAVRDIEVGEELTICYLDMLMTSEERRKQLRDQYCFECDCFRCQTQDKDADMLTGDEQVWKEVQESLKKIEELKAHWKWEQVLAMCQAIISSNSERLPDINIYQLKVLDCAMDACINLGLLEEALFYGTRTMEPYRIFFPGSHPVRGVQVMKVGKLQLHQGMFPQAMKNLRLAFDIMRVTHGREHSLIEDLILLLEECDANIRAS
Histone-lysine N-methyltransferase SETD2 (Homo sapiens), sequence (Q9BYW2 whole entry): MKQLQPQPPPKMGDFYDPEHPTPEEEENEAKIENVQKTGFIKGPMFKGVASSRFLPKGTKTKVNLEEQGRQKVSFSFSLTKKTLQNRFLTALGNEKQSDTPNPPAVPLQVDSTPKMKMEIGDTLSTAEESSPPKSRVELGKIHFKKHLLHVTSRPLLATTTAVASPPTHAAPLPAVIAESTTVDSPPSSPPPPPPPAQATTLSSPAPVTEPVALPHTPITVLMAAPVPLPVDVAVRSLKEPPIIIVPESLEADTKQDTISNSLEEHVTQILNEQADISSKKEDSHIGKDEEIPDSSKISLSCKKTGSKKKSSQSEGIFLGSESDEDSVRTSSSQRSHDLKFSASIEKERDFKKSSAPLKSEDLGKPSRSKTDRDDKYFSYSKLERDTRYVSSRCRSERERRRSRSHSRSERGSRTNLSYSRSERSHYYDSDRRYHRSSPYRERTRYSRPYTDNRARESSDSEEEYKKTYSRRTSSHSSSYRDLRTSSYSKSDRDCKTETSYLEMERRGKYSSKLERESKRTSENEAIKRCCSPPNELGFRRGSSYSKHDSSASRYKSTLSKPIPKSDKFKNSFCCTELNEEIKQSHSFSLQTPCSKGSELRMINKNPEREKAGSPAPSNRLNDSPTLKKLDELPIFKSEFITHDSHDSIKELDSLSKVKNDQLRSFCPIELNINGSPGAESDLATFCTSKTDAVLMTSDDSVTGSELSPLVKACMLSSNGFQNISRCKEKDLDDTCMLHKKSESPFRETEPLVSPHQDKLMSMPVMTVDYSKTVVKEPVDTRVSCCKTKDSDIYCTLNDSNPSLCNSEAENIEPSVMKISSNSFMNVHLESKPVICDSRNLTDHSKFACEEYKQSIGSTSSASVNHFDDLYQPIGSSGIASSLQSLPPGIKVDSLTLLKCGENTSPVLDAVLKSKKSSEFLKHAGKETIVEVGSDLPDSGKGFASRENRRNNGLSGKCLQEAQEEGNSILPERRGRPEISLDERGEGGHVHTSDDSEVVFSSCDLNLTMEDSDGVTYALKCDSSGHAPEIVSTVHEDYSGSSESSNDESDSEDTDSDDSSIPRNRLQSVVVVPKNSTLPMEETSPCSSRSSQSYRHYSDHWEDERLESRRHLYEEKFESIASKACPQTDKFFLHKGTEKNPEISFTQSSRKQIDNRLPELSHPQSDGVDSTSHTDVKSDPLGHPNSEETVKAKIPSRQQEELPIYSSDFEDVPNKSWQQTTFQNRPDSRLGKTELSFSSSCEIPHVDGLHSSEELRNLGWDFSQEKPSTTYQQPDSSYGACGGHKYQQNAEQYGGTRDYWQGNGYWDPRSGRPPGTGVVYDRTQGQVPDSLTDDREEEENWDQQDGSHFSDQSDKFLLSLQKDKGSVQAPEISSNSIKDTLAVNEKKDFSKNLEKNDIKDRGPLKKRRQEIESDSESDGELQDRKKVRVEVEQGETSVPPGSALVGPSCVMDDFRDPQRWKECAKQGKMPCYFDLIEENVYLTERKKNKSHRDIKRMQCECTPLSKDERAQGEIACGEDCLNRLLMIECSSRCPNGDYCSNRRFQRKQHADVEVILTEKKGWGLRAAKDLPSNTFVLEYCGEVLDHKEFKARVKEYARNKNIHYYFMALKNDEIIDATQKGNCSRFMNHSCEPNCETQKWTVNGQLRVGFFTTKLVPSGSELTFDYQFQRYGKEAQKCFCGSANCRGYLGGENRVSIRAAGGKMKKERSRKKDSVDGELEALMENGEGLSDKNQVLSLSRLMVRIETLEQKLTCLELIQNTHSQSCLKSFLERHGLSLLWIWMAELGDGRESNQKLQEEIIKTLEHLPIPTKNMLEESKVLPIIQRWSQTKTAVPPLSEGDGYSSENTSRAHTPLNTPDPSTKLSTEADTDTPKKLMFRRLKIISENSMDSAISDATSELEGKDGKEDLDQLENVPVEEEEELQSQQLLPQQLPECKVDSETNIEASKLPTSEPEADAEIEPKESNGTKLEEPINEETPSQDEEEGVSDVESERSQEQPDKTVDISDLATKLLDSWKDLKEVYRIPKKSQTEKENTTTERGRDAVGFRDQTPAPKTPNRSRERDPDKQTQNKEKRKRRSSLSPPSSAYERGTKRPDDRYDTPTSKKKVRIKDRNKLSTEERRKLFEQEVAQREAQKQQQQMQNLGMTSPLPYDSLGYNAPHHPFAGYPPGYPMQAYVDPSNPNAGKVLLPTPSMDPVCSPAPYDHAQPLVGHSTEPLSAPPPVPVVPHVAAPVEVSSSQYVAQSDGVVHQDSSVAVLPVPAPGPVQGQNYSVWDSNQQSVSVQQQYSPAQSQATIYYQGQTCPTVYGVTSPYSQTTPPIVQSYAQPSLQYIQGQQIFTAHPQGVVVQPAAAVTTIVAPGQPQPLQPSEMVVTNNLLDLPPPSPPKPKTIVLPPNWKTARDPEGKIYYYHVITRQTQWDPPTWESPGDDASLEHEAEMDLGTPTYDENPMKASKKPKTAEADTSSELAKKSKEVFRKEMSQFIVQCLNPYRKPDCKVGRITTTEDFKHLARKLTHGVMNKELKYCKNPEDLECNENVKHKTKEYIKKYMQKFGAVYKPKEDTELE

In turn, `O=C1COc2c(cccc2[C@H](O)CNCCN(C(=O)CCNCCc2ccc(Cl)c(Cl)c2)C2CCCCC2)N1` had a pIC50 in [1] of 8.25.

Take `O=C1COc2c(cccc2[C@@H](O)CNCCN(C(=O)CCNCCc2ccc(Cl)c(Cl)c2)C2CCCCC2)N1`: the inhibition result in assay [2], in [3], in [4], in [6], in assay [7] and in [9] was “inactive” each time. In addition, the inhibition entry in assay [10], in assay [11], in assay [12], in assay [14], in [15] and in [16] was “inactive” in each case. The inhibition entry in assay [17], in assay [18], in assay [19], in assay [20], in assay [21] and in [22] was “inactive” throughout. The inhibition entry in assay [23], in assay [24], in [25], in [27], in [28] and in [30] was “inactive” throughout. The inhibition result in [31], in [32], in [33], in [34], in assay [35] and in assay [36] was “inactive” throughout. Also, the inhibition result in assay [37] is “inactive”. Further, the outcome with A549 [5] was inactive. Besides, the inhibition in assay [8], in [13], in assay [26] and in assay [29] was 65% in each case. Moreover, the pIC50 in assay [1] was 8.55.

`O=C1COc2c(CCNCCN(C(=O)CCNCCc3ccccc3)C3CCCC3)ccc(O)c2N1` showed a negative-log IC50 (pIC50) in assay [1] of 5.66.

`O=C1COc2c(CCNCCN(C(=O)CCNCCc3ccccc3)C3CCC3)ccc(O)c2N1` showed a pIC50 in assay [1] of 4.59.

`O=C(CCNCCc1ccc(Cl)c(Cl)c1)N(CCNCCCN1CCCCC1)C1CCCCC1`: the pIC50 in assay [1] was 5.62.

`O=C1COc2c(CCNCCN(C(=O)CCNCCc3ccccc3)C3CCCCC3)ccc(O)c2N1`: the pIC50 in [1] was 6.36.

Consider `O=C(CCNCCc1ccc(Cl)c(Cl)c1)N(CCNCCN1CCCC1)C1CCCCC1`, for which the pIC50 in assay [1] is 5.30.

Regarding `O=C1COc2c(CCNCCN(C(=O)CCNCCc3ccc(Cl)c(Cl)c3)C3CCCCC3)ccc(O)c2N1`, in the assay with A549 [38], the “fold change (FC)” value is given as above 3. The compound also showed a pIC50 in assay [1] of 6.64.

Consider `O=C1COc2c(CCNCCN(C(=O)CCNCc3ccc(Cl)c(Cl)c3)C3CCCCC3)ccc(O)c2N1`, for which the negative logarithm of the IC50 (pIC50) in assay [1] was 5.51.

In assay [1], `O=C(CCNCCc1ccc(Cl)c(Cl)c1)N(CCNCCCN1CCCC1)C1CCCCC1` had a negative logarithm of the IC50 (pIC50) of 5.85.

As a reminder, the pIC50 is the negative decadic logarithm of the IC50, by convention in mol/L. Broadly, the inhibition is the drop in the measured response relative to a control, in per cent.
